Measured values as given in patent US10793531B2, “Triazole derivatives and their use as PDE4 activators” (MIRONID LIMITED, priority 2015, dated 2020).

Tests used:
OX161 cells = test: Reversal of in vitro cyst formation in OX161 cells (Experiment 10); format: cell-based, human; conditions: compound added every 2 days from day 10 to day 20, with forskolin; FIG. 13 Panel B
Procedure: In this study, the potential of PDE4 long form activators to reverse the formation of pre-formed cysts was evaluated in a human ADPKD patient-derived OX161 cell line. The experiment was carried out according to the method of Experiment 9. For the first 10 days, forskolin was added at every feed (every 2 days) but no test compound was added. For the. next 10 days, the test compound and forskolin were added at every feed (every 2 days).
Phase-contrast images were obtained every 2 days for 20 days. Per condition, 10 images were taken (in duplicate) and the average cyst area calculated.

HEK 293 cells = test: Reduction of intracellular cAMP levels in forskolin stimulated HEK 293 cells (Experiment 2); format: cell-based, human; conditions: 10 μM compound for 10 min prior to forskolin (10 μM) for 2 min; FIG. 5
Procedure: HEK 293 and MDCK cells (Public Health England, Cell Culture Collections) were maintained in DMEM supplemented with 10% (v/v) fetal bovine serum (Seralab), 2 mM L-glutamine, 1,000 U penicillin and 1,000 μg streptomycin (Life Technologies); termed complete media. Clonal HEK 293 cell lines were maintained in complete media supplemented with 0.6 mg/mL G418 (Enzo Life Sciences).
HEK 293 or MDCK cells were seeded at 100,000 cells per well, and left to adhere overnight. The cells were then treated with the compound indicated (10 μM) for 10 minutes, prior to stimulation with forskolin (10 μM, Sigma) for 2 minutes. Media was aspirated, and hydrochloric acid (0.1M) was added to lyse the cells. The cAMP assay (Enzo Life Sciences) was performed according to the manufacturers instructions.

[1] = test system: cryopreserved human hepatocytes; test: In vitro clearance using human hepatocytes (Experiment 6); format: in vitro ADME; conditions: 1 μM compound, 1 million cells/ml, 37° C.
Procedure: (§1) Human hepatocyte stability is considered the gold standard method for evaluating the hepatic metabolism of drugs in vitro. The in vitro clearance of Example A was evaluated using cryopreserved human hepatocytes according to the method of Lau et al. (Lau, Y. Y. et al. Drug Metab. Dispos. 30: 1446-1454, 2002) with minor modifications.
(§2) Cryopreserved hepatocytes were thawed in a water bath at 37° C. and transferred to a tube containing 50 ml of hepatocyte thaw medium. The hepatocytes were centrifuged at 500 rpm for 3 min. The supernatant was removed and the hepatocytes were resuspended in medium, mixed gently and centrifuged again at 500 rpm for 3 min. The supernatant was discarded and the hepatocyte pellet was gently resuspended in medium to a final density of 2 million cells/ml.
(§3) Incubations were carried out at a final test compound concentration of 1 μM. Stock solutions of the compounds were prepared in DMSO and diluted to the desired concentrations before adding to the hepatocytes. Incubations were carried out with a hepatocyte concentration of 1 million cells/ml. Samples (100 μL) were incubated at 37° C. for 0, 15, 30, 60 and 120 min in duplicate. At the end of the incubation time, 200 μl of acetonitrile with internal standard was added and the wells were sealed. […]
(§4) The samples were analysed by LC-MS/MS using a Sciex API 4000™ system.

[2] = as above; format: in vitro ADME; conditions: human, cryopreserved human hepatocytes; 1 μM compound, 1 million cells/ml, 37° C.
Procedure: as §1, §2, §3, §4

[3] = test system: androgen-sensitive (AS) LNCaP human prostate cancer cells; test: Xcelligence proliferation assay, androgen-sensitive LNCaP cells (Experiment 5); format: cell-based; conditions: normalised cell index at 72 hours; FIG. 9
Procedure: In this study, the potential utility of PDE4 long form activators in the treatment of prostate cancer was studied using the LNCaP human prostate cancer cell line. The experiments were carried out according to the method described by Henderson et al. (Henderson, D. J. P., Byrne, A., Dulla, K., Jenster, G., Hoffmann, R., Baillie, G. S., Houslay, M. D. Br. J. Cancer 110: 1278-1287, 2014).
Androgen-sensitive (AS) LNCaP cells were maintained in RPMI1640 supplemented with 10% FBS (Seralabs), 2 mM L-glutamine and 1,000 U penicillin-streptomycin. LNCaP androgen-insensitive (AI) cells were generated in-house by culturing the LNCaP-AS cells in RPMI1640 supplemented with 10% charcoal stripped FBS, 2 mM L-glutamine and 1,000 U penicillin-streptomycin for a minimum of four weeks. All tissue culture reagents were, from Life Technologies.
Cell proliferation is measured as a function of changing electrical impedance. Values are represented by cell index number, a dimensionless unit of measurement representing the cell status, which increases as cells adhere to 96-well electrode plates and divide. […]
Cell indices were measured every 10 minutes for up to 100 hours, analysed using RICA software and normalised to the cell index of vehicle-treated cells (n=3).

## CCc1nc(-c2ccc(Cl)c(F)c2)nn1CC(=O)NCc1cccc(F)c1 [Example A, N-(3-Fluorobenzyl)-2-[3-(4-chloro-3-fluorophenyl)-5-ethyl-1H-1,2,4-triazol-1-yl]acetamide]
OX161 cells
  in vitro cyst formation in OX161 cells, reversal (in words): reversed in vitro cyst formation
HEK 293 cells
  intracellular cAMP levels in HEK293 cells (in words): reduction in intracellular cAMP levels
[1]
  stability in human hepatocytes (in words): moderately stable
[2]
  half-life at 1 μM: 54 min
[3]
  proliferation of androgen-sensitive (AS) LNCaP cells (in words): inhibits the proliferation
